Test results from patent US6737383B1, “Herbicidal oxadiazolidines” (priority 1999, dated 2004).

Tests used:
cocklebur = assay: Test B pre/postemergence cocklebur; format: in vivo, Xanthium strumarium
In short: (§1)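 Herbicidal effect was estimated by eye on a ten-point control scale after plants spent twelve to sixteen days in a greenhouse following soil or foliar treatment. Foliar sprays targeted plants at one to four leaves; all doses were formulated in a non-phytotoxic solvent with surfactant.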

smallflower flatsedge = assay: Test B flood test smallflower flatsedge; format: in vivo, Cyperus difformis
In short: (§2)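 Read-out is a visual response score from 0 (no effect) to 10 (complete control), assigned by comparison with untreated controls. Treatment was applied at the 2-leaf stage, and plants stayed in the greenhouse for twelve to sixteen days before scoring.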

bamyardgrass = assay: Test B flood test barnyardgrass; format: in vivo, Echinochloa crus-galli
In short: as §2

sugar beet = assay: Test B pre/postemergence sugar beet; format: in vivo, Beta vulgaris
In short: as §1

[1] = Postemergence, Rate 62 g/ha, scale 0 to 10, 0 is no effect, 10 is complete control
[2] = Postemergence, Rate 125 g/ha, scale of 0 to 10 where 0 is no effect and 10 is complete control
[3] = Preemergence, Rate 62 g/ha, scale of 0 to 10 where 0 is no effect and 10 is complete control
[4] = Preemergence, Rate 125 g/ha, scale of 0 to 10 where 0 is no effect and 10 is complete control
[5] = Preemergence, Rate 250 g/ha, scale 0 to 10 (0 no effect, 10 complete control)
[6] = Preemergence, Rate 500 g/ha, scale of 0 to 10 where 0 is no effect and 10 is complete control
[7] = Rate 500 g/ha, Postemergence, scale 0 to 10, 0 is no effect, 10 is complete control
[8] = Rate 62 g/ha, flood test species, Pre-emergence, visual evaluation after twelve to sixteen days
[9] = Rate 125 g/ha, under heading Pre-emergence, flood test species, visual evaluation after twelve to sixteen days
[10] = Rate 250 g/ha, Pre-emergence (flood test species), scale 0 to 10, 0 is no effect, 10 is complete control
[11] = Rate 500 g/ha, Pre-emergence section of Table B, 0 to 10 scale (0 no effect, 10 complete control)
[12] = Postemergence, Rate 250 g/ha, scale 0 to 10, 0 no effect, 10 complete control
[13] = Preemergence, Rate 62 g/ha, scale 0 to 10, 0 is no effect, 10 is complete control
[14] = Preemergence, Rate 125 g/ha, scale 0 to 10 (0 no effect, 10 complete control)
[15] = Preemergence, Rate 250 g/ha, scale of 0 to 10 where 0 is no effect and 10 is complete control
[16] = Preemergence, Rate 500 g/ha, scale 0 (no effect) to 10 (complete control)
[17] = Rate 125 g/ha, Postemergence, scale 0 to 10, 0 no effect, 10 complete control
[18] = Rate 500 g/ha, Postemergence, scale 0 to 10, 0 no effect, 10 complete control
[19] = Rate 125 g/ha, Postemergence section (flood test species), scale 0 to 10, 0 no effect, 10 complete control
[20] = Rate 500 g/ha, listed under Postemergence (flood test species), scale 0 to 10, 0 no effect, 10 complete control
[21] = flood test, listed under Postemergence, Rate 250 g/ha, scale 0 to 10, 0 no effect, 10 complete control
[22] = Rate 62 g/ha, Postemergence, scale of 0 to 10 where 0 is no effect and 10 is complete control
[23] = Rate 125 g/ha, Postemergence, scale 0 to 10
[24] = Rate 125 g/ha, Preemergence, scale of 0 to 10 where 0 is no effect and 10 is complete control
[25] = Rate 62 g/ha, headed Pre-emergence (flood test species), scale 0 to 10 (0 no effect, 10 complete control)
[26] = Rate 125 g/ha, Pre-emergence, flood test species, scale 0 to 10 where 0 is no effect and 10 is complete control
[27] = Rate 250 g/ha, Pre-emergence, flood-test species, scale 0 to 10, 0 is no effect, 10 is complete control
[28] = Rate 500 g/ha, Pre-emergence, flood test species, scale 0 to 10 (0 no effect, 10 complete control)
[29] = Preemergence, Rate 250 g/ha, scale 0 (no effect) to 10 (complete control)
[30] = Rate 62 g/ha, Preemergence, scale 0 to 10
[31] = Rate 250 g/ha, Postemergence, scale 0 to 10, 0 is no effect, 10 is complete control
[32] = Pre-emergence, Rate 62 g/ha, scale 0 to 10, 0 is no effect, 10 is complete control
[33] = Rate 125 g/ha, Pre-emergence section (flood test species), scale 0 to 10, 0 no effect, 10 complete control
[34] = Rate 62 g/ha, Postemergence, scale 0 to 10 (0 no effect, 10 complete control)
[35] = Rate 125 g/ha, Postemergence, scale of 0 to 10 where 0 is no effect and 10 is complete control
[36] = Rate 250 g/ha, Postemergence, scale of 0 to 10 where 0 is no effect and 10 is complete control

CC(C)N(C(=O)n1oc(=O)n(CCF)c1=O)c1ccc(Cl)cc1 [Compound 668]
Plant response rating, Cocklebur (cocklebur; [1]): 0 | Cocklebur plant response rating (cocklebur; [2]): 0 | Cocklebur plant response rating (cocklebur; Postemergence, Rate 250 g/ha, scale of 0 to 10, 0 is no effect, 10 is complete control): 2 | Cocklebur plant response rating (cocklebur; [3]): 0 | Cocklebur plant response rating (cocklebur; [4]): 0 | Plant response rating, Cocklebur (cocklebur; [5]): 0 | Plant response rating, Cocklebur (cocklebur; [6]): 0 | Cocklebur plant response rating (cocklebur; [7]): 2 | Plant response rating, S. Flatsedge (0 to 10 scale, 0 is no effect, 10 is complete control) (smallflower flatsedge; [8]): 0 | S. Flatsedge plant response rating (0 to 10 scale, 0 is no effect, 10 is complete control) (smallflower flatsedge; [9]): 0 | S. Flatsedge plant response rating (smallflower flatsedge; [10]): 0 | S. Flatsedge plant response rating (smallflower flatsedge; [11]): 0 | Plant response rating, Barnyardgrass (0 to 10 scale, 0 is no effect, 10 is complete control) (bamyardgrass; [8]): 0 | Barnyardgrass plant response rating (0 to 10 scale, 0 is no effect, 10 is complete control) (bamyardgrass; [9]): 0 | Barnyardgrass plant response rating (bamyardgrass; [10]): 0 | Barnyardgrass plant response rating (bamyardgrass; [11]): 0 | Plant response rating, Sugarbeets (sugar beet; [1]): 0 | Sugarbeets plant response rating (sugar beet; [2]): 0 | Sugarbeets plant response rating (sugar beet; [3]): 0 | Sugarbeets plant response rating (sugar beet; [4]): 6 | Plant response rating, Sugarbeets (sugar beet; [5]): 6 | Plant response rating, Sugarbeets (sugar beet; [6]): 9 | Sugarbeets plant response rating (sugar beet; [7]): 6

Cc1ccccc1-n1c(=O)on(C(=O)N(c2ccc(F)c(F)c2)C(C)C)c1=O [Compound 48]
Cocklebur plant response rating (cocklebur; [1]): 0 | Cocklebur plant response rating (cocklebur; [12]): 0 | Plant response rating, Cocklebur (cocklebur; [13]): 0 | Plant response rating, Cocklebur (cocklebur; [14]): 0 | Plant response rating, Cocklebur (cocklebur; [15]): 0 | Cocklebur plant response rating (cocklebur; [16]): 0 | Cocklebur plant response rating (cocklebur; [17]): 0 | Cocklebur plant response rating (cocklebur; [18]): 2 | S. Flatsedge plant response rating (smallflower flatsedge; [1]): 0 | S. Flatsedge plant response rating (smallflower flatsedge; [19]): 0 | S. Flatsedge plant response rating (smallflower flatsedge; [20]): 0 | S. Flatsedge plant response rating (smallflower flatsedge; [21]): 0 | Barnyardgrass plant response rating (bamyardgrass; [1]): 0 | Barnyardgrass plant response rating (bamyardgrass; [19]): 0 | Barnyardgrass plant response rating (bamyardgrass; [20]): 0 | Barnyardgrass plant response rating (bamyardgrass; [21]): 0 | Sugarbeets plant response rating (sugar beet; [1]): 0 | Sugarbeets plant response rating (sugar beet; [12]): 0 | Plant response rating, Sugarbeets (sugar beet; [13]): 0 | Plant response rating, Sugarbeets (sugar beet; [14]): 0 | Plant response rating, Sugarbeets (sugar beet; [15]): 0 | Sugarbeets plant response rating (sugar beet; [16]): 0 | Sugarbeets plant response rating (sugar beet; [17]): 0 | Sugarbeets plant response rating (sugar beet; [18]): 0

CC(C)N(C(=O)n1oc(=O)n(-c2c(Cl)cccc2Cl)c1=O)c1ccc(F)cc1 [Compound 19]
Cocklebur plant response rating (cocklebur; [1]): 0 | Cocklebur plant response rating (cocklebur; [12]): 0 | Plant response rating, Cocklebur (cocklebur; [13]): 0 | Plant response rating, Cocklebur (cocklebur; [15]): 0 | Cocklebur plant response rating (cocklebur; [16]): 0 | Cocklebur plant response rating (cocklebur; [17]): 0 | Cocklebur plant response rating (cocklebur; Rate 500 g/ha, Postemergence, 0 to 10 scale (0 no effect, 10 complete control)): 0 | S. Flatsedge plant response rating (smallflower flatsedge; [1]): 0 | S. Flatsedge plant response rating (smallflower flatsedge; [19]): 0 | S. Flatsedge plant response rating (smallflower flatsedge; [21]): 0 | Barnyardgrass plant response rating (bamyardgrass; [1]): 0 | Barnyardgrass plant response rating (bamyardgrass; [19]): 0 | Barnyardgrass plant response rating (bamyardgrass; Rate 500 g/ha, Postemergence section of Table B, 0 to 10 scale (0 no effect, 10 complete control)): 0 | Barnyardgrass plant response rating (bamyardgrass; [21]): 0 | Sugarbeets plant response rating (sugar beet; [1]): 0 | Sugarbeets plant response rating (sugar beet; [12]): 0 | Plant response rating, Sugarbeets (sugar beet; [13]): 0 | Plant response rating, Sugarbeets (sugar beet; [14]): 0 | Plant response rating, Sugarbeets (sugar beet; [15]): 1 | Sugarbeets plant response rating (sugar beet; [16]): 2 | Sugarbeets plant response rating (sugar beet; [17]): 0

CC(C)N(C(=O)n1oc(=O)n(-c2cccnc2)c1=O)c1ccccc1 [Compound 235]
Cocklebur plant response rating (cocklebur; [3]): 0 | Cocklebur plant response rating (cocklebur; [15]): 0 | Plant response rating, Cocklebur (cocklebur; [6]): 0 | Cocklebur plant response rating (cocklebur; [22]): 0 | Cocklebur plant response rating (cocklebur; [23]): 0 | Cocklebur plant response rating (cocklebur; [24]): 0 | Plant response rating (0 to 10; 0 is no effect, 10 is complete control), Cocklebur (cocklebur; Rate 250 g/ha, Postemergence): 0 | Cocklebur plant response rating (cocklebur; [18]): 0 | S. Flatsedge plant response rating (smallflower flatsedge; [25]): 0 | S. Flatsedge plant response rating (smallflower flatsedge; [26]): 0 | S. Flatsedge plant response rating (smallflower flatsedge; [27]): 0 | S. Flatsedge plant response rating (smallflower flatsedge; [28]): 0 | Barnyardgrass plant response rating (bamyardgrass; [25]): 0 | Barnyardgrass plant response rating (bamyardgrass; [26]): 0 | Barnyardgrass plant response rating (bamyardgrass; [27]): 0 | Barnyardgrass plant response rating (bamyardgrass; [28]): 0 | Sugarbeets plant response rating (sugar beet; [3]): 0 | Sugarbeets plant response rating (sugar beet; [15]): 0 | Plant response rating, Sugarbeets (sugar beet; [6]): 0 | Sugarbeets plant response rating (sugar beet; [22]): 0 | Sugarbeets plant response rating (sugar beet; [23]): 0 | Sugarbeets plant response rating (sugar beet; [24]): 0 | Plant response rating (0 to 10; 0 is no effect, 10 is complete control), Sugarbeets (sugar beet; Rate 250 g/ha, Postemergence): 0 | Sugarbeets plant response rating (sugar beet; [18]): 0

CC(C)N(C(=O)n1oc(=O)n(CCN(C)C(=O)c2ccccc2)c1=O)c1ccc(F)cc1 [Compound 741]
Plant response rating, Cocklebur (cocklebur; [1]): 0 | Cocklebur plant response rating (cocklebur; [2]): 0 | Plant response rating, Cocklebur (cocklebur; [4]): 0 | Cocklebur plant response rating (cocklebur; [29]): 0 | Cocklebur plant response rating (cocklebur; [30]): 0 | Cocklebur plant response rating (cocklebur; [31]): 0 | Cocklebur plant response rating (cocklebur; [7]): 0 | S. Flatsedge plant response rating (smallflower flatsedge; [32]): 0 | S. Flatsedge plant response rating (smallflower flatsedge; [33]): 0 | S. Flatsedge plant response rating (smallflower flatsedge; [10]): 0 | S. Flatsedge plant response rating (smallflower flatsedge; [11]): 8 | Barnyardgrass plant response rating (bamyardgrass; [32]): 0 | Barnyardgrass plant response rating (bamyardgrass; [33]): 0 | Barnyardgrass plant response rating (bamyardgrass; [10]): 0 | Barnyardgrass plant response rating (bamyardgrass; [11]): 0 | Plant response rating, Sugarbeets (sugar beet; [1]): 0 | Sugarbeets plant response rating (sugar beet; [2]): 0 | Plant response rating, Sugarbeets (sugar beet; [4]): 0 | Sugarbeets plant response rating (sugar beet; [29]): 0 | Sugarbeets plant response rating (sugar beet; [30]): 0 | Sugarbeets plant response rating (sugar beet; [31]): 4 | Sugarbeets plant response rating (sugar beet; [7]): 4 | Sugarbeets plant response rating (sugar beet; Rate 500 g/ha, Preemergence, scale 0 to 10 (0 no effect, 10 complete control)): 4

CCN(C(=O)n1oc(=O)n(Cc2ccco2)c1=O)C1CCCCC1 [Compound 312]
Cocklebur plant response rating (cocklebur; [3]): 0 | Cocklebur plant response rating (0 to 10 scale) (cocklebur; Preemergence, Rate 125 g/ha): 0 | Cocklebur plant response rating (cocklebur; [15]): 0 | Cocklebur plant response rating (cocklebur; [6]): 0 | Cocklebur plant response rating (cocklebur; [34]): 0 | Cocklebur plant response rating (cocklebur; [35]): 0 | Plant response rating, Cocklebur (cocklebur; [36]): 0 | Cocklebur plant response rating (cocklebur; [18]): 0 | S. Flatsedge plant response rating (smallflower flatsedge; [25]): 0 | S. Flatsedge plant response rating (smallflower flatsedge; [26]): 0 | S. Flatsedge plant response rating (smallflower flatsedge; [27]): 0 | S. Flatsedge plant response rating (smallflower flatsedge; [28]): 0 | Barnyardgrass plant response rating (bamyardgrass; [25]): 0 | Barnyardgrass plant response rating (bamyardgrass; [26]): 0 | Barnyardgrass plant response rating (bamyardgrass; [27]): 0 | Barnyardgrass plant response rating (bamyardgrass; [28]): 0 | Sugarbeets plant response rating (sugar beet; [3]): 0 | Sugarbeets plant response rating (0 to 10 scale) (sugar beet; Preemergence, Rate 125 g/ha): 0 | Sugarbeets plant response rating (sugar beet; [15]): 0 | Sugarbeets plant response rating (sugar beet; [6]): 0 | Sugarbeets plant response rating (sugar beet; [34]): 0 | Sugarbeets plant response rating (sugar beet; [35]): 0 | Plant response rating, Sugarbeets (sugar beet; [36]): 0
